pIC50: −log10 of the molar value.
Legend:
[1] = target: T1, RhoA-LARG interaction (Homo sapiens, UniProt Q9NZN5); experiment: In vitro complex formation assay, LARG binding to RhoA; conditions: for inhibition at 100 µM: read-out: Relative binding inhibition, %
T1 construct: human LARG (residues 765-1,138); made in house; host or cells: E. coli BL21 (DE3) (LARG), E. coli DH5α (GST-RhoA)
T1 sequence (Q9NZN5 765-1138 limits assumed): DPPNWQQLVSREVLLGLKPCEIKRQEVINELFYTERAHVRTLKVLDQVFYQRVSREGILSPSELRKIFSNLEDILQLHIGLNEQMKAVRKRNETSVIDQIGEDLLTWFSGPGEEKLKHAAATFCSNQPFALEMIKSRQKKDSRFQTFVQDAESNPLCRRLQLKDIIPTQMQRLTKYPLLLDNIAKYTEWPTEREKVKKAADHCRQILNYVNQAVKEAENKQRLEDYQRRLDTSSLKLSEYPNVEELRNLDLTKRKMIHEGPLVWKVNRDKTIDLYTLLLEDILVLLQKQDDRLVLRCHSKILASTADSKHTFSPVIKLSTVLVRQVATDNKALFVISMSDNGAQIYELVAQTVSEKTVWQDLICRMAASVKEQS
Experimental: About 1 μg of (His)6-tagged LARG DH-PH was incubated with 1 μg of EDTA-treated GSTRhoA or Cdc42 or GST alone in a binding buffer [20 mM Tris.HCl (pH 7.6), 100 mM NaCl, 1% BSA, 1% Triton X-100, 1 mM MgCl2] containing 15 μL of suspended glutathione-agarose beads. Y16 or other chemicals were added in the incubation buffer at the indicated concentrations. After an incubation at 4° C. for 1 h under constant agitation, the glutathione beads were washed twice with the binding buffer. The amount of (His)6-tagged protein coprecipitated with GST-fusion bound beads was detected by anti-His Western blotting. Similarly, cell lysates containing myc-Tiam1, (His)6-Cdc42, (His)6-TrioN, or (His)6-RhoA were mixed with purified GST-Rac1, GST-Cdc42, GST-mDia, GST-PKN, GSTROCKII, GST-p190GAP, or GST alone, and pairwise association was assessed in the presence or absence of indicated amount of Y16 and/or Rhosin.
The information in FIG. 4 was obtained by the following procedures. (A) Dose-dependent specific inhibition of LARG binding to RhoA by Y16, G04, or G04+Y16 combination at varying concentrations. (B) NIH 3T3 cells were treated with Y16, G04, or G04+Y16 combination at the indicated concentrations for 24 h in serum-free media. Cells were subsequently stimulated with 10% calf serum for 15 min and were subjected to GST-Rhotekin effector domain pull-down assays, and the activities of RhoA were examined. Relative amounts of GTP-bound form of the GTPases were quantified by densitometry measurements and normalized to those of the unstimulated cells. (C) NIH 3T3 cells were treated with Y16, G04, or G04+Y16 combination at the indicated concentrations for 24 h in serum-free media. Cells were subsequently stimulated with 10% calf serum for 15 min and were subjected to GST-Rhotekin and GST-PAK1 effector domain pull-down assays, and the activities of RhoA, Cdc42, and Rac1 were examined. Relative amounts of GTP-bound form of the GTPases were quantified by densitometry measurements and normalized to those of the nontreated cells. (D) NIH 3T3 cells were treated with Y16, G04, or G04+Y16 combination of the indicated concentrations in serum-free DMEM medium prior to stimulation with LPA (20 ng/mL) for 10 min. The cells were stained with rhodamine-phalloidin to reveal F-actin structures.
The inhibitory effects of the analogs were tested in a complex formation assay. (His)6-tagged LARG PH-DH (1 μg) was incubated with GST alone or GST-RhoA conjugated with glutathione agarose beads in the presence or absence of 100 μM indicated compounds. After an incubation at 4° C. for 1 h, the beads-associated (His)6-LARG PH-DH was detected by anti-His Western blotting. The relative inhibition of each analog was normalized to the inhibitory effect of Y16 of the same concentration.

[2] = system: RhoA-GTP; experiment: Endogenous Rho GTPase activity assay, RhoA-GTP in NIH 3T3 cells; format: cell-based; conditions: Mus musculus, NIH3T3, serum stimulated, acting alone at 30 μM, read-out: inhibition of RhoA-GTP content
Experimental: The information in FIG. 3 was obtained by the following procedures. (A and B) NIH 3T3 cells were treated with Y16 at the indicated concentrations for 24 h in serum-free media. Cells were subsequently stimulated with 10% calf serum for 15 min and were subjected to GST-Rhotekin or GST-PAK1 effector domain pull-down assays, and the activities of RhoA, Cdc42, and Rac1 were examined. Relative amounts of GTP-bound form of the GTPases were quantified by densitometry measurements and normalized to those of the unstimulated cells. […]
NIH 3T3 cells, MCF7 cells, or HME cells were grown in log phase in a 10-cm dish or a six-well dish, and were starved in serum-free medium in the presence or absence of Y16 at indicated concentrations for 24 h and were subsequently stimulated with 10% calf serum or FBS for 15 min. […] Lysates were clarified, the protein concentrations were normalized, and the GTP-bound RhoA, Rac1, or Cdc42 in the lysates were measured by respective anti-RhoA, Rac1, and Cdc42 Western blotting of the effector domain pull downs.
The information in FIG. 4 was obtained by the following procedures. […] Relative amounts of GTP-bound form of the GTPases were quantified by densitometry measurements and normalized to those of the unstimulated cells. […] Relative amounts of GTP-bound form of the GTPases were quantified by densitometry measurements and normalized to those of the nontreated cells. […]

[3] = target: RhoA (Homo sapiens, UniProt P61586); conditions: reference 26; cited from earlier work
[4] = system: RhoA-GTP; experiment: RhoA activity in MCF7-derived mammospheres; format: cell-based; conditions: alone at 10 μM
Experimental: The information in FIG. 5 was obtained by the following procedures. (A) Y16, G04, or G04+Y16 combination inhibits MCF7 breast cell growth. MCF7 cells were plated at 1.5×10^4/24 well in the presence of Y16, G04, or G04+Y16 combination. Cell numbers were determined at the indicated times. (B) MCF7 cells were subjected migration assays in the presence of Y16, G04, or G04+Y16 combination. (C) The invasive activities were assayed in a Matrigel-coated transwell. (D) Y16, G04, or G04+Y16 combination inhibits RhoA and its downstream signaling activities in MCF7-derived mammospheres. (Upper) MCF7-derived mammospheres were treated with Y16, G04, or G04+Y16 combination at the indicated concentrations. Spheres were collected, and the RhoA activity was examined. Relative amounts of GTP-bound form of RhoA were quantified by densitometry measurements and normalized to those of the untreated cells. (Lower) Western blots are of p-MLC of MCF7-derived mammospheres. Y16, G04, or G04+Y16 combination inhibits MCF-7 cell-derived mammosphere formation. (E) MCF-7 cells were treated with Y16, G04, or G04+Y16 combination at the indicated concentrations for 24 h in serum-free media. MCF7 cells were dissociated to single cells with trypsin and cultured for 10 d at the density of 2×10^4/mL in suspension in the media containing G04 or Y16 at the indicated concentration. Photographs were taken after a 10-d culture. […]

[5] = 100 μM compound, normalized to the inhibitory effect of Y16 of the same concentration

RhoA, sequence (P61586 whole entry): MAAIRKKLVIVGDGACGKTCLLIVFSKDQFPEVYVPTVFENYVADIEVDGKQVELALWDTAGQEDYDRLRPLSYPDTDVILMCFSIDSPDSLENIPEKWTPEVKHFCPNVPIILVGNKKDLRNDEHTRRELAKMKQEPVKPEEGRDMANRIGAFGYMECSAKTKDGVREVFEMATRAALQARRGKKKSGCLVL

O=C1NN(c2ccccc2)C(=O)/C1=C/c1ccc(OCc2ccccc2)cc1 [Compound 1]
Relative binding inhibition, % ([1]; 100 μM compound, normalized to the inhibitory effect of Y16 of the same concentration, 100 µM): 27.12% | inhibition at 100 µM [1, 5]: 27.1%

COc1cc(/C=C2/C(=O)NN(c3ccccc3)C2=O)ccc1O [Compound 2]
inhibition at 100 µM [1, 5]: 13%

O=C1NN(c2ccccc2)C(=O)/C1=C\C1=NCc2ccccc21 [Compound 3]
inhibition at 100 µM [1, 5]: 6.75%

COc1cc(/C=C2/C(=O)NN(c3ccccc3)C2=O)cc(Br)c1OCCOc1ccc(C)cc1 [Compound 4]
inhibition at 100 µM [1, 5]: 13.8%

O=C1/C(=C\c2ccccc2OCc2ccccc2)CNN1c1ccc(Br)cc1 [Compound 5]
inhibition at 100 µM [1, 5]: 7.34%

N[C@H](Cc1c[nH]c2ccccc12)C(=O)N/N=C/c1ccc2nccnc2c1 [Compound G04, (2R)-2-amino-3-(1Hindol-3-yl)-N′-[(1E)-quinoxalin-6-ylmethylidene]propanehydrazide]
inhibition at 30 µM [2]: ~80% | pIC50 ([1]; inhibitors alone or combined together, read-out: IC50 for inhibition of RhoA binding to LARG): ~5.00 | binding affinity to RhoA [3]: micromolar | inhibition at 10 µM [4]: ~50%

— patent publication US9951024B2, “Small-molecule inhibitors targeting G-protein-coupled Rho guanine nucleotide exchange factors” (Children's Hospital Medical Center, priority 2013, dated 2018)
